pIC50: −log10 of the molar value.
Experiments:
Assay type in all cases: cell-based
PAR2 (HT-29 cells) [1] = biological target: T1, PAR2 (HT-29 cells) (Homo sapiens, UniProt P55085); assay: Ca FLIPR TETRA assay, ANTAGONIST mode, activator 3.1 U/mL trypsin; conditions: HT-29 cells; activator 3.1 U/mL trypsin; Method A: maximal concentration of antagonist 0.1, 1 or 2 μM
T1 construct: host or cells: HT-29
T1 sequence (P55085 26-397): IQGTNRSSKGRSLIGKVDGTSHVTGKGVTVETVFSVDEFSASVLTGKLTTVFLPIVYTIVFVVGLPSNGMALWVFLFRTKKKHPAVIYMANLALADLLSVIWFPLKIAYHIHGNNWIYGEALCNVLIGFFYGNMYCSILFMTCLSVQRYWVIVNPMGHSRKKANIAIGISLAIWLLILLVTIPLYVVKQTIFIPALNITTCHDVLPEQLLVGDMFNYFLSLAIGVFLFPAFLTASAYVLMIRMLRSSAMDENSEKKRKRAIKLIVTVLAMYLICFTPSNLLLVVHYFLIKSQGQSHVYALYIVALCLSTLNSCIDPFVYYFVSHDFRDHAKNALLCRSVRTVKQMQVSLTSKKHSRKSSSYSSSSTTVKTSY
Procedure, shortened: (§1)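 Antagonist-mode FLIPR Tetra Ca2+ read: dye-loaded HT-29 cells preincubated 30 min at r.t. with compound (first read checks agonism alone), then challenged with final 3.1 U/mL trypsin, 8 μM SLIGKV, 1 U/mL thrombin or 0.6 μM UTP. Cells plated overnight in 1% FBS McCoy's; Calcium 5 loading 45 min 37 °C plus 15 min r.t.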

[2] = system: Thrombin-stimulated Ca2+ response in HT-29 cells; assay: Ca FLIPR TETRA assay, ANTAGONIST mode, activator 1 U/mL Thrombin; conditions: Homo sapiens; HT-29 cells, activator 1 U/mL Thrombin
Procedure, shortened: as §1

PAR2 (HT-29 cells) [3] = biological target: T1, PAR2 (HT-29 cells); assay: Ca FLIPR TETRA assay, ANTAGONIST mode, activator 8 μM SLIGKV; conditions: HT-29 cells; activator 8 μM SLIGKV; Method A: maximal concentration of antagonist 0.1, 1 or 2 μM
Procedure, shortened: as §1

[4] = system: UTP-stimulated Ca2+ response in HT-29 cells; assay: Ca FLIPR TETRA assay, ANTAGONIST mode, activator 0.6 μM UTP; conditions: Homo sapiens; HT-29 cells, activator 0.6 μM UTP
Procedure, shortened: as §1

pIC50 (PAR2 (HT-29 cells) [1])	pIC50 [2]	pIC50 (PAR2 (HT-29 cells) [3])	pIC50 [4]	Compound
9.52	5.96	9.70	6.01	CC(C)(C)c1cc(-c2ccc(Cl)c(F)c2)nc2cc(C(=O)N3CCC(CC(=O)NC#N)CC3(C)C)oc12 (stereo not shown) [Example I-432]
8.47	< 5.70	8.57	< 5.70	CC(C)(C)c1cc(-c2ccc(Cl)c(F)c2)nc2cc(C(=O)N3CCC(CC(=O)NS(=O)(=O)C(F)(F)F)CC3(C)C)oc12 (stereo not shown) [Example I-433]
7.12	< 5.70	7.59	< 5.70	CC(C)(C)c1cc(N2CCC[C@H]2C(F)(F)F)nc2cc(C(=O)N3CCN(C(=O)[C@H]4C[C@](C)(O)C4)CC3(C)C)oc12 [Example I-434]
8.42	< 5.70	8.80	< 5.70	CC(C)(C)c1cc(N2CCC3(CC2)CC3)nc2cc(C(=O)N3CCN(C(=O)[C@H]4C[C@@](C)(O)C4)CC3(C)C)oc12 [Example I-435]
8.11	< 5.70	8.19	< 5.70	CC(C)(C)c1cc(N2CCC(C(F)(F)F)CC2)nc2cc(C(=O)N3CCN(C(=O)[C@H]4C[C@](C)(O)C4)CC3(C)C)oc12 [Example I-437]
6.38	< 5.70	6.49	< 5.70	CC(C)(C)c1cc(N2CCC(C#N)CC2)nc2cc(C(=O)N3CCN(C(=O)[C@H]4C[C@](C)(O)C4)CC3(C)C)oc12 [Example I-438]
7.02	< 5.70	7.11	< 5.70	CC1(O)CC(C(=O)N2CCN(C(=O)c3cc4nc(N5CCC(F)(F)C5)cc(C(C)(C)C)c4o3)C(C)(C)C2)C1 (stereo not shown) [Example I-439]
6.19	< 5.70	6.28	< 5.70	CC(C)(C)c1cc(N2CCC[C@@H]2C(F)(F)F)nc2cc(C(=O)N3CCN(C(=O)[C@H]4C[C@](C)(O)C4)CC3(C)C)oc12 [Example I-440]
6.89	< 5.70	7.12	< 5.70	CC(C)(C)c1cc(N2CC3(C2)CC(F)(F)C3)nc2cc(C(=O)N3CCN(C(=O)[C@H]4C[C@](C)(O)C4)CC3(C)C)oc12 [Example I-441]
< 5.70	< 5.70	< 5.70	< 5.70	CC(C)(C)c1cc(N2CCC(C(C)(C)O)CC2)nc2cc(C(=O)N3CCN(C(=O)[C@H]4C[C@](C)(O)C4)CC3(C)C)oc12 [Example I-442]
9.22	< 5.70	9.30	5.80	CC(C)(C)c1cc(C2CC3(CCC3)C2)nc2cc(C(=O)N3CCN(c4ccc(C(=O)O)cn4)CC3(C)C)oc12 [Example I-443]
7.12	< 5.70	7.19	< 5.70	CC(C)(C)c1cc(C2CC3(CCC3)C2)nc2cc(C(=O)N3CCN(C(=O)[C@@H]4CNCCO4)CC3(C)C)oc12 [Example I-444]
6.59	< 5.70	6.59	< 5.70	CC(C)(C)c1cc(C2CC3(CCC3)C2)nc2cc(C(=O)N3CCN(C(=O)[C@H]4CNCCO4)CC3(C)C)oc12 [Example I-445]
6.89	< 5.70	6.97	< 5.70	CC(C)(C)c1cc(C2CC3(CCC3)C2)nc2cc(C(=O)N3CCN(C(=O)[C@H]4COCCN4)CC3(C)C)oc12 [Example I-446]
6.23	< 5.70	6.34	< 5.70	CC(C)(C)c1cc(C2CC3(CCC3)C2)nc2cc(C(=O)N3CCN(C(=O)[C@@H]4COCCN4)CC3(C)C)oc12 [Example I-447]
9.10	< 6.00	9.40	< 6.00	CC1(C)CCC(c2cc(C(C)(C)C)c3oc(C(=O)N4CCN(c5nc(C(=O)O)co5)CC4(C)C)cc3n2)CC1 [Example I-450]
8.23	< 5.70	8.17	< 5.70	CC1(C)CCC(c2cc(C(C)(C)C)c3oc(C(=O)N4CCN(c5cnc(C(=O)O)cn5)CC4(C)C)cc3n2)CC1 [Example I-451]
8.18	< 5.70	8.05	< 5.70	CC(C)(C)c1cc(-c2ccc(Cl)cc2)nc2cc(C(=O)N3CCN(c4cnc(C(=O)O)cn4)CC3(C)C)oc12 [Example I-452]
6.18	< 5.70	6.35	< 5.70	CC(C)(C)c1cc(-c2ccc(F)cc2)nc2cc(C(=O)N3CCN(N4CCC(=O)NCC4(C)C)CC3(C)C)oc12 [Example I-453]

pIC50 (PAR2 (HT-29 cells) [1])	pIC50 [2]	pIC50 (PAR2 (HT-29 cells) [3])	pIC50 [4]	Compound
7.17	< 5.70	7.39	< 5.70	CC(C)(C)c1cc(-c2ccc(F)cc2)nc2cc(C(=O)N3CCN(N4CCNC(=O)CC4(C)C)CC3(C)C)oc12 [Example I-454]
8.62	6.35	8.92	6.38	CC1(C)CCC(c2cc(C(C)(C)C)c3oc(C(=O)N4CCN(c5nccc(C(=O)O)n5)CC4(C)C)cc3n2)CC1 [Example I-455]
8.38	< 5.70	8.49	< 5.70	CC(C)(C)c1cc(-c2ccc(Cl)c(F)c2)nc2cc(C(=O)N3CCN(c4cnc(C(=O)O)cn4)CC3(C)C)oc12 [Example I-456]
9.05	5.72	9.10	5.82	CC(C)(C)c1cc(-c2ccc(Cl)cc2)nc2cc(C(=O)N3CCN(c4nccc(C(=O)O)n4)CC3(C)C)oc12 [Example I-457]
7.74	5.94	8.06	5.92	CC1(C)CCC(c2cc(C(C)(C)C)c3oc(C(=O)N4CCN(c5cccc(C(=O)O)n5)C(=O)C4(C)C)cc3n2)CC1 [Example I-458]
8.89	6.46	8.74	6.18	CC(C)(C)c1cc(-c2ccc(Cl)c(F)c2)nc2cc(C(=O)N3CCN(c4cccc(C(=O)O)n4)C(=O)C3(C)C)oc12 [Example I-459]
7.85	5.76	7.97	5.73	CC(C)(C)c1cc(-c2ccc(Cl)cc2)nc2cc(C(=O)N3CCN(c4cccc(C(=O)O)n4)C(=O)C3(C)C)oc12 [Example I-460]
9.30	6.18	9.40	6.25	CC(C)(C)c1cc(-c2ccc(Cl)c(F)c2)nc2cc(C(=O)N3CCN(c4nccc(C(=O)O)n4)CC3(C)C)oc12 [Example I-461]
9.10	5.80	9.22	5.90	Cc1nc(N2CCN(C(=O)c3cc4nc(-c5ccc(Cl)cc5)cc(C(C)(C)C)c4o3)C(C)(C)C2)ncc1C(=O)O [Example I-462]
9.05	6.00	9.15	6.07	CC(C)(C)c1cc(-c2ccc(Cl)cc2)nc2cc(C(=O)N3CCN(c4cncc(C(=O)O)n4)CC3(C)C)oc12 [Example I-463]
9.05	6.09	9.30	6.21	CC1(C)CCC(c2cc(C(C)(C)C)c3oc(C(=O)N4CCN(c5cncc(C(=O)O)n5)CC4(C)C)cc3n2)CC1 [Example I-464]
8.92	< 6.00	9.30	6.02	Cc1nc(N2CCN(C(=O)c3cc4nc(C5CCC(C)(C)CC5)cc(C(C)(C)C)c4o3)C(C)(C)C2)ncc1C(=O)O [Example I-465]
9.40	5.94	9.70	6.00	Cc1nc(N2CCN(C(=O)c3cc4nc(-c5ccc(Cl)c(F)c5)cc(C(C)(C)C)c4o3)C(C)(C)C2)ncc1C(=O)O [Example I-466]
8.11	< 5.70	8.37	< 5.70	CCS(=O)(=O)NCC(=O)N1CCN(C(=O)c2cc3nc(-c4ccc(Cl)cc4)cc(C(C)(C)C)c3o2)C(C)(C)C1 [Example I-467]
8.33	< 5.70	8.60	< 5.70	CCS(=O)(=O)NCC(=O)N1CCN(C(=O)c2cc3nc(-c4ccc(Cl)c(F)c4)cc(C(C)(C)C)c3o2)C(C)(C)C1 [Example I-468]
9.22	< 5.70	9.52	< 5.70	CC(C)(C)c1cc(-c2ccc(Cl)c(F)c2)nc2cc(C(=O)N3CCN(c4cncc(C(=O)O)n4)CC3(C)C)oc12 [Example I-469]
8.21	< 5.70	8.24	< 5.70	CC(C)(C)c1cc(-c2ccc(Cl)c(F)c2)nc2cc(C(=O)N3CCN(c4nccnc4C(=O)O)CC3(C)C)oc12 [Example I-470]
8.85	< 5.70	8.96	< 5.70	CC(C)(C)c1cc(-c2ccc(Cl)cc2)nc2cc(C(=O)N3CCN(c4ccc(C(=O)O)nn4)CC3(C)C)oc12 [Example I-471]

Source: patent US20180057505A1, “BICYCLIC HETEROARYL COMPOUNDS USEFUL AS INHIBITORS OF THE PAR-2 SIGNALING PATHWAY” (VERTEX PHARMACEUTICALS INCORPORATED, priority 2015, published 2018)
